Test results taken from ChEMBL document CHEMBL3885861, “Open TG-GATES”.

Species on record: Rattus norvegicus
Assay: Open TG-GATES - Regimen: Daily Repeat
Type: toxicity, organism-based, Sprague-Dawley
Set-up: regimen Daily Repeat, gender Male, age 6 weeks
Conditions: in vivo, po, 2 mg/kg, route gavage, dose level Low; for APTT / Bas / Eos / Fbg / Hb / Ht / Lym / MCH / MCHC / MCV / Mono / Neu / PT / Plat / RBC / Ret / WBC: tissue Blood; for KIDNEY_TOTAL: tissue Kidney; for LIVER: tissue Liver; for A/G / ALP / ALT / AST / BUN / CRE / Ca / Cl / DBIL / GLC / IP / K / LDH / Na / PL / RALB / TBIL / TC / TG / TP / gamma-GTP: tissue Plasma

CN(CCOc1ccc(CC2SC(=O)NC2=O)cc1)c1ccccn1.O=C(O)/C=C\C(=O)O (centres undefined) [ROSIGLITAZONE MALEATE]
TERMINAL_BW (72 h, time 3 day): 243.4 g
APTT (72 h, time 3 day): 15.7 s
Bas (72 h, time 3 day): 0%
Eos (72 h, time 3 day): 1%
Fbg (72 h, time 3 day): 233.4 mg/dL
Hb (72 h, time 3 day): 13.2 g/dL
Ht (72 h, time 3 day): 40.2%
Lym (72 h, time 3 day): 73%
MCH (72 h, time 3 day): 20.7 pg
MCHC (72 h, time 3 day): 32.7%
MCV (72 h, time 3 day): 63.4 fL
Mono (72 h, time 3 day): 7.4%
Neu (72 h, time 3 day): 18.8%
PT (72 h, time 3 day): 11.7 s
Plat (72 h, time 3 day): 133 x10_4/uL
RBC (72 h, time 3 day): 634.8 x10_4/ul
Ret (72 h, time 3 day): 6.7%
WBC (72 h, time 3 day): 88.6 x10_2/uL
KIDNEY_TOTAL (72 h, time 3 day): 0.7 g
LIVER (72 h, time 3 day): 12.2 g
A/G (72 h, time 3 day): 2.1
ALP (72 h, time 3 day): 1105.8 IU/L
ALT (72 h, time 3 day): 36 IU/L
AST (72 h, time 3 day): 64.2 IU/L
BUN (72 h, time 3 day): 15.6 mg/dL
CRE (72 h, time 3 day): 0.2 mg/dL
Ca (72 h, time 3 day): 11.5 mg/dL
Cl (72 h, time 3 day): 104.4 meq/L
DBIL (72 h, time 3 day): 0.01 mg/dL
GLC (72 h, time 3 day): 189.4 mg/dL
IP (72 h, time 3 day): 8 mg/dL
K (72 h, time 3 day): 4.6 meq/L
LDH (72 h, time 3 day): 128.2 IU/L
Na (72 h, time 3 day): 140.8 meq/L
PL (72 h, time 3 day): 152.2 mg/dL
RALB (72 h, time 3 day): 3.9 g/dL
TBIL (72 h, time 3 day): 0.034 mg/dL
TC (72 h, time 3 day): 83 mg/dL
TG (72 h, time 3 day): 88.2 mg/dL
TP (72 h, time 3 day): 5.8 g/dL
gamma-GTP (72 h, time 3 day): 0 IU/L
TERMINAL_BW ([…], time 7 day): 271.5 g
TERMINAL_BW ([…], time 14 day): 343.6 g
TERMINAL_BW ([…], time 28 day): 425.3 g
APTT ([…], time 7 day): 16.1 s
Bas ([…], time 7 day): 0%
Eos ([…], time 7 day): 1%
Fbg ([…], time 7 day): 246.6 mg/dL
Hb ([…], time 7 day): 13.3 g/dL
Ht ([…], time 7 day): 40.4%
Lym ([…], time 7 day): 77.6%
MCH ([…], time 7 day): 20.9 pg
MCHC ([…], time 7 day): 32.9%
MCV ([…], time 7 day): 63.5 fL
Mono ([…], time 7 day): 5.2%
Neu ([…], time 7 day): 16.2%
PT ([…], time 7 day): 11.5 s
Plat ([…], time 7 day): 134.4 x10_4/uL
RBC ([…], time 7 day): 636.8 x10_4/ul
Ret ([…], time 7 day): 5.1%
WBC ([…], time 7 day): 102.8 x10_2/uL
APTT ([…], time 14 day): 15.3 s
Bas ([…], time 14 day): 0%
Eos ([…], time 14 day): 0.8%
Fbg ([…], time 14 day): 233.4 mg/dL
Hb ([…], time 14 day): 13.4 g/dL
Ht ([…], time 14 day): 40.9%
Lym ([…], time 14 day): 77.6%
MCH ([…], time 14 day): 20.2 pg
MCHC ([…], time 14 day): 32.8%
MCV ([…], time 14 day): 61.5 fL
Mono ([…], time 14 day): 5.4%
Neu ([…], time 14 day): 16.2%
PT ([…], time 14 day): 11.7 s
Plat ([…], time 14 day): 116.6 x10_4/uL
RBC ([…], time 14 day): 666 x10_4/ul
Ret ([…], time 14 day): 3.8%
WBC ([…], time 14 day): 109.2 x10_2/uL
APTT ([…], time 28 day): 15.7 s
Bas ([…], time 28 day): 0%
Eos ([…], time 28 day): 1%
Fbg ([…], time 28 day): 236.8 mg/dL
Hb ([…], time 28 day): 14.4 g/dL
Ht ([…], time 28 day): 44%
Lym ([…], time 28 day): 83.2%
MCH ([…], time 28 day): 18.7 pg
MCHC ([…], time 28 day): 32.7%
MCV ([…], time 28 day): 57.2 fL
Mono ([…], time 28 day): 3.8%
Neu ([…], time 28 day): 12%
PT ([…], time 28 day): 11.9 s
Plat ([…], time 28 day): 108.5 x10_4/uL
RBC ([…], time 28 day): 769.2 x10_4/ul
Ret ([…], time 28 day): 2.2%
WBC ([…], time 28 day): 93.8 x10_2/uL
KIDNEY_TOTAL ([…], time 7 day): 0.7 g
KIDNEY_TOTAL ([…], time 14 day): 0.8 g
KIDNEY_TOTAL ([…], time 28 day): 0.7 g
LIVER ([…], time 7 day): 12.8 g
LIVER ([…], time 14 day): 15.1 g
LIVER ([…], time 28 day): 16.8 g
A/G ([…], time 7 day): 2
ALP ([…], time 7 day): 1242 IU/L
ALT ([…], time 7 day): 32.4 IU/L
AST ([…], time 7 day): 62.2 IU/L
BUN ([…], time 7 day): 19 mg/dL
CRE ([…], time 7 day): 0.5 mg/dL
Ca ([…], time 7 day): 11.4 mg/dL
Cl ([…], time 7 day): 104.6 meq/L
DBIL ([…], time 7 day): 0.012 mg/dL
GLC ([…], time 7 day): 183.4 mg/dL
IP ([…], time 7 day): 7.2 mg/dL
K ([…], time 7 day): 4.3 meq/L
LDH ([…], time 7 day): 118 IU/L
Na ([…], time 7 day): 140.8 meq/L
PL ([…], time 7 day): 144.6 mg/dL
RALB ([…], time 7 day): 3.8 g/dL
TBIL ([…], time 7 day): 0.034 mg/dL
TC ([…], time 7 day): 73.6 mg/dL
TG ([…], time 7 day): 100.6 mg/dL
TP ([…], time 7 day): 5.7 g/dL
gamma-GTP ([…], time 7 day): 0.6 IU/L
A/G ([…], time 14 day): 2.1
ALP ([…], time 14 day): 1340.2 IU/L
ALT ([…], time 14 day): 35.2 IU/L
AST ([…], time 14 day): 64.8 IU/L
BUN ([…], time 14 day): 18 mg/dL
CRE ([…], time 14 day): 0.4 mg/dL
Ca ([…], time 14 day): 11.2 mg/dL
Cl ([…], time 14 day): 105.6 meq/L
DBIL ([…], time 14 day): 0.01 mg/dL
GLC ([…], time 14 day): 189.8 mg/dL
IP ([…], time 14 day): 7.8 mg/dL
K ([…], time 14 day): 4.4 meq/L
LDH ([…], time 14 day): 92.2 IU/L
Na ([…], time 14 day): 143.2 meq/L
PL ([…], time 14 day): 142.2 mg/dL
RALB ([…], time 14 day): 3.8 g/dL
TBIL ([…], time 14 day): 0.032 mg/dL
TC ([…], time 14 day): 70.4 mg/dL
TG ([…], time 14 day): 110 mg/dL
TP ([…], time 14 day): 5.7 g/dL
gamma-GTP ([…], time 14 day): 1 IU/L
A/G ([…], time 28 day): 2
ALP ([…], time 28 day): 1172.5 IU/L
ALT ([…], time 28 day): 34 IU/L
AST ([…], time 28 day): 62.8 IU/L
BUN ([…], time 28 day): 18.2 mg/dL
CRE ([…], time 28 day): 0.4 mg/dL
Ca ([…], time 28 day): 10.6 mg/dL
Cl ([…], time 28 day): 105 meq/L
DBIL ([…], time 28 day): 0.01 mg/dL
GLC ([…], time 28 day): 185.2 mg/dL
IP ([…], time 28 day): 6.4 mg/dL
K ([…], time 28 day): 4.2 meq/L
LDH ([…], time 28 day): 90.2 IU/L
Na ([…], time 28 day): 141.2 meq/L
PL ([…], time 28 day): 119 mg/dL
RALB ([…], time 28 day): 3.9 g/dL
TBIL ([…], time 28 day): 0.035 mg/dL
TC ([…], time 28 day): 54.8 mg/dL
TG ([…], time 28 day): 126.5 mg/dL
TP ([…], time 28 day): 5.9 g/dL
gamma-GTP ([…], time 28 day): 0 IU/L
